Experimental data published in US8981149B2, “Compounds modulating the hedgehog protein signaling pathway, marked forms thereof, and applications” (Centre National De La Recherche Scientifique, priority 2011, dated 2015).

Tests used:
human Smo receptor = molecular target: T1, human Smo receptor (Homo sapiens, UniProt Q99835); test: Competition with bodipy-cyclopamine (BC) binding in HEK-hSmo cells
T1 construct: expressed in transfected cells
Procedure: Cells of the HEK293 line stably transfected with the human Smo receptor are used. The experiment was conducted according to the protocol described in Roudaut et al., Mol. Pharmacol. 79: 453-460, 2011.
At the end of the incubation, the cells are fixed and stained with DAPI, a fluorescent molecule with high affinity for DNA which makes it possible to visualize the nuclei in blue in fluorescence microscopy.

[1] = molecular target: T2, human Smoothened receptor (Homo sapiens, UniProt Q99835); test: Inhibition of binding of 3H-(7d) to membranes of HEK-hSmo cells; conditions: HEK-hSmo membranes
T2 construct: expressed in transfected cells
T2 sequence (Q99835 28-787): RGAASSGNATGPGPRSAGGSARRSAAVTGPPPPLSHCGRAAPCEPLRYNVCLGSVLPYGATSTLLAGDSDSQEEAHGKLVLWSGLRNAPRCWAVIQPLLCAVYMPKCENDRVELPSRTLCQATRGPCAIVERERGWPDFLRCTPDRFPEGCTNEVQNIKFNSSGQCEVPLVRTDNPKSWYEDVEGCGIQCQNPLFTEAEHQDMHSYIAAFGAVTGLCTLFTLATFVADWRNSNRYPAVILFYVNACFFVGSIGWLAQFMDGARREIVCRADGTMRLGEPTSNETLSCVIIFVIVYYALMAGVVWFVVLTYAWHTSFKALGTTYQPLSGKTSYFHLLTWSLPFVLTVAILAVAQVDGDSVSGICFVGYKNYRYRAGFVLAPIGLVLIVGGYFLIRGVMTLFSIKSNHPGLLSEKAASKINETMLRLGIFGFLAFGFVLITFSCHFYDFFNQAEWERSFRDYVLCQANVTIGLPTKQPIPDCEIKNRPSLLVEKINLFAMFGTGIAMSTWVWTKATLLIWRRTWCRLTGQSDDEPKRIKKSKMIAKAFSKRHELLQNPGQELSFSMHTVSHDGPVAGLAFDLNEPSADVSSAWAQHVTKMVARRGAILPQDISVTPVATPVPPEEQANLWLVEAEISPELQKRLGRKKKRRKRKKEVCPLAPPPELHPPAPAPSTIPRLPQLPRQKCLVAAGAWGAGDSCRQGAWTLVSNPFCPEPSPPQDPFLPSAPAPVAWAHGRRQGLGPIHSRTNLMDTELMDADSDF
Procedure: The binding test is carried out on membranes enriched with Smoothened receptor. Cells of the HEK-hSmo line were used for preparing these membranes. The cells are washed and recovered in iced PBS. After centrifugation at 100 g for 7 minutes at 4° C., the pellet is taken up in 10 times its volume of an iced buffer A (50 mM HEPES, pH 7.4, 1 mM EDTA) with addition of 10 μl of a cocktail of protease inhibitors (PEAK, Sigma) per ml of buffer, then it is homogenized using a Polytron grinding mill. After centrifugation at 500 g for 30 minutes at 4° C., which makes it possible to remove the nuclei from the cells, the supernatant is centrifuged again at 48 000 g for 45 min at 4° C. The pellet is taken up in 2 ml of buffer A with PEAK added, then the suspension is homogenized using a glass conical grinding mill and is passed through a 23 G needle. Finally, aliquots are placed in Eppendorf tubes and stored at −80° C. The concentration of total protein in the preparation is determined by Lowry's method using BSA for preparing the standard range.
The membranes are resuspended in a buffer (50 mM HEPES and 3 mM MgCl2) containing 0.2% of BSA. The tests of binding of ^3H-(7d) are carried out in polypropylene tubes. The membranes (2 μg of proteins) are incubated with the ^3H-(7d) in the presence or absence of the cold test compounds for 3 hours at 37° C. in a final volume of 400 μl. Incubation is stopped by immersing the tubes in iced water followed by rapid filtration (Brandel) through a glass fiber filtration membrane (GF/C) treated beforehand with 0.3% of polyethylenimine, which can reduce the nonspecific binding of the ^3H-(7d) to the filtration membrane. The radioactivity retained on the filter is measured in the presence of 3 ml of scintillating agent in a liquid scintillation counter.
In this experiment, the cold ligand competes with the radioactive ligand for binding to the receptor, and the affinity (Ki) of each cold ligand for the receptor can be analyzed based on the IC50 values deduced from the inhibition curves.

T1 sequence (Q99835 28-787): as above

## COc1cc(C(=O)NC(=N)Nc2ccc(C)c(NC(=O)c3ccc(CCc4ccccc4)cc3)c2)cc(OC)c1OC.Cl [Compound 7d, 3,4,5-trimethoxy-N—(N-(4-methyl-3-(4-phenethylbenzamido)phenyl)carbamimidoyl)benzamide hydrochloride]
Human Smo receptor; BC 5 nM, 2 hours
  Block of the binding of BC to HEK-hSmo cells, in words: very similar and high
Human Smo receptor; bodipy-cyclopamine (5 nM), HEK-hSmo cells, read-out: IC50 ± SEM, BC binding (4)
  IC50: 8 ± 1 nM
[1]; 0.35 nM 3H-(7d), 3 hours at 37° C., read-out: IC50 ± SEM, binding of compound 3H-(7d)
  IC50: 1.5 nM
[1]; calculated from IC50, read-out: Ki ± SEM, binding of compound 3H-(7d)
  Ki: 0.7 ± 0.1 nM
